Key:
[1] = tested on: ABUTH—Velvetleaf (Abutilon theophrasti); test: General postemergence herbicidal activity, velvetleaf; type: in vivo; details: post-emergence, 336 h, post-emergent, rate 140 g ai/ha, visual score after 14 days (0 no injury, 100 complete kill), read-out: % Growth Reduction ABUTH
Method: (§1) Seeds or nutlets of the desired test plant species were planted in Sun Gro MetroMix® 306 planting mixture, which typically has a pH of 6.0 to 6.8 and an organic matter content of about 30 percent, in plastic pots with a surface area of 64 square centimeters. When required to ensure good germination and healthy plants, a fungicide treatment and/or other chemical or physical treatment was applied. The plants were grown for 7-21 days in a greenhouse with an approximate 15 hour photoperiod which was maintained at about 23-29° C. during the day and 22-28° C. during the night. Nutrients and water were added on a regular basis and supplemental lighting was provided with overhead metal halide 1000-Watt lamps as necessary. The plants were employed for testing when they reached the first or second true leaf stage.
(§2) A weighed amount, determined by the highest rate to be tested, of each test compound was placed in a 25 mL glass vial and was dissolved in 4 mL of a 97:3 v/v (volume/volume) mixture of acetone and dimethyl sulfoxide (DMSO) to obtain concentrated stock solutions. […] The concentrated stock solutions obtained were diluted with 20 mL of an aqueous mixture containing acetone, water, isopropyl alcohol, DMSO, Atplus 411F crop oil concentrate, and Triton X-155 surfactant in a 48.5:39:10:1.5:1.0:0.02 v/v ratio to obtain spray solutions containing the highest application rates. Additional application rates were obtained by serial dilution of 12 mL of the high rate solution into a solution containing 2 mL of 97:3 v/v (volume/volume) mixture of acetone and DMSO and 10 mL of an aqueous mixture containing acetone, water, isopropyl alcohol, DMSO, Atplus 411F crop oil concentrate, and Triton X-155 surfactant in a 48.5:39:10:1.5:1.0:0.02 v/v ratio to obtain ½X, ¼X, ⅛X and 1/16X rates of the high rate. Compound requirements are based upon a 12 mL application volume at a rate of 187 L/ha. Formulated compounds were applied to the plant material with an overhead Mandel track sprayer equipped with 8002E nozzles calibrated to deliver 187 L/ha over an application area of 0.503 square meters at a spray height of 18 inches […] above the average plant canopy height. Control plants were sprayed in the same manner with the solvent blank.
(§3) The treated plants and control plants were placed in a greenhouse as described above and watered by sub-irrigation to prevent wash-off of the test compounds. After 14 days, the condition of the test plants as compared with that of the untreated plants was determined visually and scored on a scale of 0 to 100 percent where 0 corresponds to no injury and 100 corresponds to complete kill.

[2] = tested on: CIRAR—Canada thistle (Cirsium arvense); test: General postemergence herbicidal activity, Canada thistle; type: in vivo; details: post-emergence, 336 h, post-emergent, rate 140 g ai/ha, visual score after 14 days (0 no injury, 100 complete kill), read-out: % Growth Reduction CIRAR
Method: as §1, §2, §3

[3] = tested on: POLCO—Wild buckwheat (Polygonum convolvulus); test: General postemergence herbicidal activity, wild buckwheat; type: in vivo; details: Fallopia convolvulus, post-emergence, 336 h; post-emergent, rate 140 g ai/ha, visual score after 14 days (0 no injury, 100 complete kill); read-out: % Growth Reduction POLCO
Method: as §1, §2, §3

[4] = tested on: ECHCG—Barnyardgrass (Echinochloa crus-galli); test: General postemergence herbicidal activity, barnyardgrass; type: in vivo; details: post-emergence, 336 h, post-emergent, rate 140 g ai/ha, visual score after 14 days (0 no injury, 100 complete kill), read-out: % Growth Reduction ECHCG
Method: as §1, §2, §3

[5] = tested on: ABUTH—Velvetleaf (Abutilon theophrasti); test: General preemergence herbicidal activity, velvetleaf; type: in vivo; details: pre-emergent, rate 140 g ai/ha, visual score after 20-22 days (0 no injury, 100 complete kill or no emergence), read-out: % Growth Inhibition ABUTH
Description: (§4) Seeds of the desired test plant species were planted in a soil matrix prepared by mixing a loam soil (43 percent silt, 19 percent clay, and 38 percent sand, with a pH of about 8.1 and an organic matter content of about 1.5 percent) and sand in a 70 to 30 ratio. The soil matrix was contained in plastic pots with a surface area of 113 square centimeters. When required to ensure good germination and healthy plants, a fungicide treatment and/or other chemical or physical treatment was applied. A weighed amount, determined by the highest rate to be tested, of each test compound was placed in a 25 mL glass vial and was dissolved in 6 mL of a 97:3 v/v (volume/volume) mixture of acetone and DMSO to obtain concentrated stock solutions. […] The stock solutions obtained were diluted with 18 mL of a 0.1% v/v aqueous solution of Tween® 20 surfactant to obtain spray solutions containing the highest application rate. Additional application rates were obtained by serial dilution of 12 mL of the high rate solution into a solution containing 3 mL of 97:3 v/v mixture of acetone and DMSO and 9 mL of the 0.1% v/v aqueous solution of Tween® 20 surfactant to obtain 1⁄2X, 1⁄4X, 1⁄8X and 1/16X rates of the high rate. Compound requirements are based upon a 12 mL application volume at a rate of 187 L/ha. Formulated compounds were applied to the plant material with an overhead Mandel track sprayer equipped with […] nozzles calibrated to deliver 187 L/ha over an application area of 0.503 square meters at a spray height of 18 inches (43 cm) above the soil surface. Control plants were sprayed in the same manner with the solvent blank. The treated pots and control pots were placed in a greenhouse maintained with an approximate 15 hour photoperiod and temperatures of about 23-29° C. during the day and 22-28° C. during the night. Nutrients and water were added on a regular basis and supplemental lighting was provided with overhead metal halide 1000-Watt lamps as necessary. The water was added by top-irrigation. After 20-22 days, the condition of the test plants that germinated and grew as compared with that of the untreated plants that emerged and grew was determined visually and scored on a scale of 0 to 100 percent where 0 corresponds to no injury and 100 corresponds to complete kill or no emergence.

[6] = tested on: ZEAMX—Corn (Zea mays); test: General preemergence herbicidal activity, corn; type: in vivo; details: pre-emergent, rate 140 g ai/ha, visual score after 20-22 days (0 no injury, 100 complete kill or no emergence), read-out: % Growth Inhibition ZEAMX
Description: as §4

[7] = tested on: SORVU—Common sorghum (Sorghum vulgare); test: General preemergence herbicidal activity, common sorghum; type: in vivo; details: pre-emergent, rate 140 g ai/ha, visual score after 20-22 days (0 no injury, 100 complete kill or no emergence), read-out: % Growth Inhibition SORVU
Description: as §4

[8] = tested on: CHEAL—Common lambsquarters (Chenopodium album); test: General preemergence herbicidal activity, common lambsquarters; type: in vivo; details: pre-emergent, rate 140 g ai/ha, visual score after 20-22 days (0 no injury, 100 complete kill or no emergence), read-out: % Growth Inhibition CHEAL
Description: as §4

[9] = tested on: HELAN—Common sunflower (Helianthus annuus); test: General preemergence herbicidal activity, common sunflower; type: in vivo; details: pre-emergent, rate 140 g ai/ha, visual score after 20-22 days (0 no injury, 100 complete kill or no emergence), read-out: % Growth Inhibition HELAN
Description: as §4

`COC(=O)c1nc(-c2ccc(Cl)cc2F)nc(N)c1Cl` [Compound 1, 6-Amino-5-chloro-2-(4-chloro-2-fluorophenyl)pyrimidine-4-carboxylic acid methyl ester] gave a melting point of 194 to 196 °C, a pest or weed control at 140 g/ha [1] of 100% and a pest or weed control at 140 g/ha [2] of 100%. The pest or weed control at 140 g/ha [3] was 95% and the pest or weed control at 140 g/ha [4] was 90%.
For `COC(=O)c1nc(-c2ccc(Cl)c(F)c2F)nc(N)c1Cl` [Compound 2, 6-Amino-5-chloro-2-(4-chloro-2,3-difluorophenyl)pyrimidine-4-carboxylic acid methyl ester], the melting point was 187 to 189 °C, the pest or weed control at 140 g/ha [1] was 100% and the pest or weed control at 140 g/ha [2] was 100%. It also gave a pest or weed control at 140 g/ha [3] of 100% and a pest or weed control at 140 g/ha [4] of 95%.
With `COC(=O)c1nc(-c2ccc(C)c(F)c2F)nc(N)c1Cl` [Compound 4, 6-Amino-5-chloro-2-(2,3-difluoro-4-methylphenyl)pyrimidine-4-carboxylic acid methyl ester] the pest or weed control at 140 g/ha [1] was 99%, the pest or weed control at 140 g/ha [2] was 60% and the pest or weed control at 140 g/ha [3] was 80%. For the same compound, the pest or weed control at 140 g/ha [4] was 90%.
`COC(=O)c1nc(-c2ccc(C(F)(F)F)cc2F)nc(N)c1Cl` [Compound 5, 6-Amino-5-chloro-2-(2-fluoro-4-trifluoromethylphenyl)pyrimidine-4-carboxylic acid methyl ester] gave a pest or weed control at 140 g/ha [1] of 70%, a pest or weed control at 140 g/ha [2] of 85% and a pest or weed control at 140 g/ha [3] of 80%. For the same compound, the pest or weed control at 140 g/ha [4] was 0%.
With `COC(=O)c1nc(-c2ccc(C(F)(F)F)c(F)c2F)nc(N)c1Cl` [Compound 6, 6-Amino-5-chloro-2-(2,3-difluoro-4-trifluoromethylphenyl)pyrimidine-4-carboxylic acid methyl ester] the pest or weed control at 140 g/ha [1] was 90%, the pest or weed control at 140 g/ha [2] was 80% and the pest or weed control at 140 g/ha [3] was 95%. It also gave a pest or weed control at 140 g/ha [4] of 25%.
In the case of `COC(=O)c1nc(-c2cc(F)c(C)cc2F)nc(N)c1Cl` [Compound 8, 6-Amino-5-chloro-2-(2,5-difluoro-4-methylphenyl)pyrimidine-4-carboxylic acid methyl ester], the pest or weed control at 140 g/ha [1] is reported as 95%, the pest or weed control at 140 g/ha [2] is reported as 45% and the pest or weed control at 140 g/ha [3] is reported as 60%. For the same compound, the pest or weed control at 140 g/ha [4] was 0%.
For `COC(=O)c1nc(-c2ccc(C(F)F)cc2F)nc(N)c1Cl` [Compound 9, 6-Amino-5-chloro-2-(4-difluoromethyl-2-fluorophenyl)pyrimidine-4-carboxylic acid methyl ester], the pest or weed control at 140 g/ha [1] was 45%, the pest or weed control at 140 g/ha [2] was 40% and the pest or weed control at 140 g/ha [3] was 35%. The pest or weed control at 140 g/ha [4] was 0%.
In the case of `COC(=O)c1nc(-c2cc(Cl)c(Cl)cc2F)nc(N)c1Cl` [Compound 10, 6-Amino-5-chloro-2-(4,5-dichloro-2-fluorophenyl)pyrimidine-4-carboxylic acid methyl ester], the pest or weed control at 140 g/ha [1] is reported as 90%, the pest or weed control at 140 g/ha [2] is reported as 95% and the pest or weed control at 140 g/ha [3] is reported as 100%.
`Cc1ccc(-c2nc(N)c(Cl)c(C(=O)O)n2)c(F)c1` [Compound 13, 6-Amino-5-chloro-2-(2-fluoro-4-methylphenyl)pyrimidine-4-carboxylic acid] gave an inhibition at 140 g/ha [5] of 95%, an inhibition at 140 g/ha [6] of 10% and an inhibition at 140 g/ha [7] of 50%. For the same compound, the inhibition at 140 g/ha [8] was 95%.
In the case of `Cc1ccc(-c2nc(N)c(Cl)c(C(=O)O)n2)c(F)c1F` [Compound 14, 6-Amino-5-chloro-2-(2,3-difluoro-4-methylphenyl)pyrimidine-4-carboxylic acid], the pest or weed control at 140 g/ha [1] is reported as 90%, the inhibition at 140 g/ha [9] is reported as 60% and the inhibition at 140 g/ha [5] is reported as 100%. It also gave an inhibition at 140 g/ha [6] of 30%, an inhibition at 140 g/ha [7] of 40% and a pest or weed control at 140 g/ha [2] of 85%. It also gave a pest or weed control at 140 g/ha [3] of 80%, a pest or weed control at 140 g/ha [4] of 95% and an inhibition at 140 g/ha [8] of 100%.
Compound `Nc1nc(-c2cc(Cl)c(Cl)cc2F)nc(C(=O)O)c1Cl` [Compound 17, 6-Amino-5-chloro-2-(4,5-dichloro-2-fluorophenyl)pyrimidine-4-carboxylic acid] has a pest or weed control at 140 g/ha [1] of 85%, a pest or weed control at 140 g/ha [2] of 90% and a pest or weed control at 140 g/ha [3] of 95%.
With `Cc1cc(F)c(-c2nc(N)c(Cl)c(C(=O)O)n2)cc1F` [Compound 18, 6-Amino-5-chloro-2-(2,5-difluoro-4-methylphenyl)pyrimidine-4-carboxylic acid] the pest or weed control at 140 g/ha [1] was 100%, the pest or weed control at 140 g/ha [2] was 100% and the pest or weed control at 140 g/ha [3] was 40%. For the same compound, the pest or weed control at 140 g/ha [4] was 75%.
Work on `CCOC(=O)c1nc(-c2ccc(Cl)cc2F)nc(N)c1Cl` [Compound 19, 6-Amino-5-chloro-2-(4-chloro-2-fluorophenyl)pyrimidine-4-carboxylic acid ethyl ester] yielded a melting point of 131 to 132 °C, a pest or weed control at 140 g/ha [1] of 99% and a pest or weed control at 140 g/ha [2] of 95%. The pest or weed control at 140 g/ha [3] was 100% and the pest or weed control at 140 g/ha [4] was 80%.
Compound `COC(=O)c1nc(-c2cc(F)c(Cl)cc2F)nc(N)c1Cl` [Compound 20, 6-Amino-5-chloro-2-(4-chloro-2,5-difluorophenyl)-pyrimidine-4-carboxylic acid methyl ester] has a pest or weed control at 140 g/ha [1] of 99%, a pest or weed control at 140 g/ha [2] of 95% and a pest or weed control at 140 g/ha [3] of 100%. It also gave a pest or weed control at 140 g/ha [4] of 95%.

— patent US8598085B2, “2-(2-fluoro-substituted phenyl)-6-amino-5-chloro-4-pyrimidinecarboxylates and their use as herbicides” (Dow AgroSciences LLC, priority 2007, dated 2013)
